According to paper PMC11109052, “Metabolism characterization and toxicity of N-hydap, a marine candidate drug for lung cancer therapy by LC–MS method” (Natural Products and Bioprospecting, 2024):

Legend:
Ugt1a1 = assay: DME activity ex vivo in MLMs and MKMs: UGT1A1 (SN38-G from SN38); set-up: species or system mice; key to UGT1A1 Enzymatic activity: ↑: up-regulation; ↓: down-regulation; –: no change
Protocol: (§1) Mice were randomly divided into four groups, with eight animals in each group. The mice received oral pretreatment with N-hydap for 7 days at doses of 2, 5, and 10 mg/kg/day, which were considered as the low dose, medium dose, and high dose, respectively. Correspondingly, the control group received PBS. On the 8th day, the liver and kidneys were removed, and organs from eight mice per group were combined to prepare MLMs and MKMs using the detailed procedures above. Subsequently, we determined the activity of CYP and UGT enzymes by specific substrate metabolized with MLMs (0.5 mg/mL) and MKMs (0.2 mg/mL) in vitro. Specifically, the following selective substrates were used for the respective enzymes: PH (1 μM) for CYP1A2, DIC (1 μM) for CYP2C9, MP (90 μM) for CYP2C19, DM (1 μM) for CYP2D6, CZX (10 μM) for CYP2E1, Tes (1 μM) for CYP3A4, SN38 (1 μM) for UGT1A1, CACD (100 μM) for UGT1A3, Sero (20 μM) for UGT1A6, and Prop (1 μM) for UGT1A9. All substrates were dissolved in methanol or DMSO. The incubation procedure was carried out as mentioned above, and the reaction was terminated with VER (20 ng/mL) in ESI+ mode and CLP (200 ng/mL) in ESI− mode. In the ex vivo experiments, the activity of enzymes was measured by quantifying the production of various metabolites (nM/mg protein/min). The metabolites and their corresponding enzymes are as follows: APAP from PH, 4-OH-DIC from DIC, 4-OH-MP from MP, DXO from DM, 6-OH-CZX from CZX, 6-OH-Tes from Tes, SN38-G from SN38, CACD-G from CACD, Sero-G from Sero, Prop-G from Prop. The measurements were performed using multiple reaction monitoring (MRM) transitions, which are specific mass spectrometry transitions used for quantification. The optimized parameters for each metabolite, such as declustering potential and collision energy, were described in Supplementary Table 1. All experiments were conducted in triplicate, to ensure accuracy and reproducibility.

[1] = Stability in tissue homogenate; assay type: in vitro ADME
Protocol: The stability of the KPI solution was examined after storage at 4 °C for 24 h and incubation at 37 °C for 4 h, which was conducted using the QC samples at three concentrations (five samples for each concentration). Stability in plasma and tissue homogenate was assessed by testing samples stored at both 4 °C and room temperature for 24 h.

UGT1A3 = biological target: T1, UGT1A3 (Homo sapiens, UniProt P35503); assay: Incubation with recombinant human UGT isoforms: UGT1A3; assay type: in vitro ADME; conditions: recombinant UGT 2 μg/mL
T1 construct: purchased Cypex (Scotland, UK)
Protocol: Incubation of N-hydap (2.5 μM) with eight recombinant human CYP enzymes (CYP1A2, CYP2B6, CYP2C9, CYP2C19, CYP2D6, CYP3A4, CYP4A11 and CYP4F2) at three enzyme concentrations (2, 4, and 20 μg/mL) was conducted following the same procedure as described above for microsomes. Subsequently, incubation with N-hydap (1, 2.5, and 6 μM) and twelve recombinant human UGT isoforms (UGT1A1, UGT1A3, UGT1A4, UGT1A6, UGT1A7, UGT1A8, UGT1A9, UGT1A10, UGT2B4, UGT2B7, UGT2B15 and UGT2B17) was performed, with the enzyme concentration used at 2 μg/mL. All reactions were carried out in triplicate.

Cyp1a2 = assay: Western blot protein level after 7 days gavage: CYP1A2; assay type: in vivo, mice; set-up: key to CYP1A2 Protein expression: ↑: up-regulation; ↓: down-regulation; –: no change
Protocol: as §1, with “The optimized parameters for each metabolite, such as declustering potential and collision energy, were described in Supplementary Table 1. All experiments were conducted in triplicate, to ensure accuracy and reproducibility.” left out
After 7 days of N-hydap gavage, the liver and kidney tissues were lysed using RIPA buffer supplemented with a 1% protease inhibitor cocktail. […] Western blot signals were detected using an ECL chemiluminescence detection agent. The relative intensity of each protein band was scanned and quantified using Image J software.

CYP2D6 = assay: DME activity ex vivo in MLMs and MKMs: CYP2D6 (DXO from DM); set-up: species or system mice; key to CYP2D6 Enzymatic activity: ↑: up-regulation; ↓: down-regulation; –: no change
Protocol: as §1

Cyp2e1 = assay: Real-time PCR mRNA level after 7 days gavage: Cyp2e1; assay type: in vivo, mice; set-up: key to CYP2E1 mNA expression: ↑: up-regulation; ↓: down-regulation; –: no change; conditions: for mRNA levels of Cyp2e1: mice, 2, 5, 10 mg/kg p.o. 7 days
Protocol: as §1
Total RNA from liver and kidney samples taken after 7 days of N-hydap gavage was extracted using the Animal Total RNA Isolation Kit (Foregene, Chengdu, Sichuan, China) following the manufacturer’s instructions. The concentrations of total RNA were determined by a nucleic acid concentration tester at 260/280 nm. A HiScript III RT SuperMix for qPCR (+ gDNA wiper) (Vazyme, Nanjing, Jiangsu, China) was used to measure the concentration of the synthesized cDNA. ChamQ SYBR qPCR Master Mix (Vazyme, Nanjing, Jiangsu, China) and detection were performed using a Light Cycler 480 II (ROCHE, Basel, Switzerland). Real-time PCR was used to analyze the relative mRNA levels of Cyp1a2, Cyp2b10, Cyp2c39, Cyp2d22, Cyp2e1, Cyp3a11, Ugt1a1, Ugt1a6a and Ugt1a9 (human homologs: CYP1A2, CYP2B6, CYP2C19, CYP2D6, CYP2E1, CYP3A4, UGT1A1, UGT1A6, and UGT1A9) in the liver, kidneys, and intestines. […]

Cyp2d22 = assay: Real-time PCR mRNA level after 7 days gavage: Cyp2d22 (human homolog CYP2D6); assay type: in vivo, mice; set-up: key to CYP2D6 mNA expression: ↑: up-regulation; ↓: down-regulation; –: no change
Protocol: as §1, with “The optimized parameters for each metabolite, such as declustering potential and collision energy, were described in Supplementary Table 1. All experiments were conducted in triplicate, to ensure accuracy and reproducibility.” left out
Total RNA from liver and kidney samples taken after 7 days of N-hydap gavage was extracted using the Animal Total RNA Isolation Kit (Foregene, Chengdu, Sichuan, China) following the manufacturer’s instructions. The concentrations of total RNA were determined by a nucleic acid concentration tester at 260/280 nm. […]

T1 sequence (P35503 29-534): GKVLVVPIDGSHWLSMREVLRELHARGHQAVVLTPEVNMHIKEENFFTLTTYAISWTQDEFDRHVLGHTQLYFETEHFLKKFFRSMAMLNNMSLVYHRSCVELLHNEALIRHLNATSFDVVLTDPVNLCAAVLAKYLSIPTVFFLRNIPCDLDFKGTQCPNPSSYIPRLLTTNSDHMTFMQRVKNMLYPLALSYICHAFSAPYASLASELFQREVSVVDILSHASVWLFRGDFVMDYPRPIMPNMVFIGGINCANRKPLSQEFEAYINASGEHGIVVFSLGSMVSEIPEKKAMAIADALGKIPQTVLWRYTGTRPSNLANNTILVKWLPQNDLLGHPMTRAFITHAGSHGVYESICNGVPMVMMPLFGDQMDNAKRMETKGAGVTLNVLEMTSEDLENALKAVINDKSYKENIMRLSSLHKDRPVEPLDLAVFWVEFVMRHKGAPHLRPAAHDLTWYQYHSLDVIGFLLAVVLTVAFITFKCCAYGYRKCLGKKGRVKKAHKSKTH

Compound: CC1CCC2C(C=CC(C)C2C(=O)c2c(O)c(C3(O)CCC(O)C4OC43)cn(O)c2=O)C1 (stereo not drawn) [N-hydap, N-Hydroxyapiosporamide]
- UGT1A1 Enzymatic activity (Ugt1a1; Kidney): –
- UGT1A1 Enzymatic activity (Ugt1a1; Liver): ↑
- elevation of formation rate of SN38-G (Ugt1a1; MLMs, range stated jointly for APAP, SN38-G, 6-OH-Tes and CDCA-G): 12%-331%
- stability, Accuracy (Bias, %) ([1]; 60 nM, 4℃ for 24h): 102.62%
- stability, Accuracy (Bias, %) ([1]; 60 nM, room temperature for 24h): 103.17%
- stability, Accuracy (Bias, %) ([1]; 150 nM, 4℃ for 24h): 103.40%
- stability, Accuracy (Bias, %) ([1]; 150 nM, room temperature for 24h): 99.13%
- stability, Accuracy (Bias, %) ([1]; 500 nM, 4℃ for 24h): 105.16%
- stability, Accuracy (Bias, %) ([1]; 500 nM, room temperature for 24h): 93.38%
- share of N-hydap glucuronidation by UGT1A3 (UGT1A3): over 80%
- CYP1A2 Protein expression (Cyp1a2; Kidney): ↑
- up-regulation of protein levels of CYP1A2 (Cyp1a2; mice, 10 mg/kg p.o. 7 days, kidney): 117%
- decrease of protein levels of CYP1A2 (Cyp1a2; mice, p.o. 7 days, liver): 68%
- CYP2D6 Enzymatic activity (CYP2D6; Kidney): ↑
- CYP2D6 Enzymatic activity (CYP2D6; Liver): ↓
- CYP2D6 inhibitor, experimental results (CYP2D6; Table 4 experimental column): Inhibition in the liver
- reduction of formation rate of DXO vs control (CYP2D6; liver microsomes of mice pretreated 7 days p.o.): 54%
- CYP2E1 mNA expression (Cyp2e1; Kidney): ↑
- CYP2E1 mNA expression (Cyp2e1; Liver): –
- mRNA levels of Cyp2e1 (Cyp2e1; intestines): slight reduction
- mRNA levels of Cyp2e1 (Cyp2e1; kidney): modest increase
- CYP2D6 mNA expression (Cyp2d22; Kidney): –
- CYP2D6 mNA expression (Cyp2d22; Liver): –
- mRNA levels of Cyp2d22 (Cyp2d22; mice, 2, 5, 10 mg/kg p.o. 7 days): No significant changes
